# Laboratory results: patent publication US6500950B1, “Benzylidenepyrazolones, their preparation and use” (BASF Aktiengesellschaft, priority 1997, dated 2002)
# Key:
# Type in all cases: in vivo
# Chenopodium album = assay: Post-emergence greenhouse experiment, herbicidal activity; conditions: post-emergence rate 0.125 or 0.0≅kg/ha of a.s., scale 0 to 100
# Description: (§1) The seeds of the test plants were sown separately for each species. For the post-emergence treatment, the test plants were first grown to a plant height of 3 to 15 cm, depending on the plant habit, and only then treated with the active compounds which had been suspended or emulsified in water. The test plants for this purpose were either sown directly and grown in the same containers, or they were first grown separately as seedlings and transplanted into the test containers a few days prior to treatment. The rate of application for the post-emergence treatment was 0.125 or 0.0≅kg/ha of a.s. Depending on the species, the plants were kept at 10-25° C. or 20-35° C. The test period extended over 2 to 4 weeks. During this time, the plants were tended, and their response to the individual treatments was evaluated. Evaluation was carried out using a scale from 0 to 100. 100 means no emergence of the plants, or complete destruction of at least the aerial parts, and 0 means no damage, or normal course of growth. The plants used in the greenhouse experiments were from the following species: [table]
# Polygonum persicaria = assay: as above; conditions: post-emergence rate 0.125 or 0.0≅kg/ha of a.s., scale 0 to 100
# Description: as §1
# Echinochloa crus-galli = assay: as above; conditions: for Test plants [damage in %] Echinochloa crus-galli: post-emergence
# Description: as §1, with “The rate of application for the post-emergence treatment was 0.125 or 0.0≅kg/ha of a.s.” left out
# Setaria faberii = assay: as above; conditions: for Test plants [damage in %] Setaria faberii: post-emergence
# Description: as §1, with “The rate of application for the post-emergence treatment was 0.125 or 0.0≅kg/ha of a.s.” left out
# Zea mays = assay: Post-emergence greenhouse experiment, damage to useful plant; conditions: post-emergence rate 0.125 or 0.0≅kg/ha of a.s., scale 0 to 100
# Description: as §1
# Amaranthus retroflexus = assay: Post-emergence greenhouse experiment, herbicidal activity
# Description: as §1, with “The rate of application for the post-emergence treatment was 0.125 or 0.0≅kg/ha of a.s.” left out, “growth.” for “growth. The plants used in the greenhouse experiments were from the following species: [table]”
# Solanum nigrum = assay: as above
# Description: as §1, with “The rate of application for the post-emergence treatment was 0.125 or 0.0≅kg/ha of a.s.” left out, “growth.” for “growth. The plants used in the greenhouse experiments were from the following species: [table]”
# [1] = greenhouse, post-emergence rate 0.125 or 0.0≅kg/ha of a.s., scale 0 to 100
# [2] = application rate 0.25 g/ha of a.s.
# [3] = application rate 0.5 g/ha of a.s.
smiles,measurement,setting,value
"CCN1N=CC(=C(Cl)c2ccc(S(C)(=O)=O)c(C3=NOCC3)c2Cl)C1=O [I.119, cis-4-[Chloro(2-chloro-3-(4,5-dihydroisoxazol-3-yl)-4-methylsulfonylphenyl)methylene]-2-ethyl-2,4-dihydropyrazol-3-one]",damage of the plants,Chenopodium album,> 98%
same,damage of the plants,Polygonum persicaria,> 98%
same,damage of the plants,Echinochloa crus-galli; [1],> 98%
same,Test plants [damage in %] Echinochloa crus-galli,Echinochloa crus-galli; [2],100%
same,Test plants [damage in %] Echinochloa crus-galli,Echinochloa crus-galli; [3],100%
same,damage of the plants,Setaria faberii; [1],> 98%
same,Test plants [damage in %] Setaria faberii,Setaria faberii; [2],100%
same,Test plants [damage in %] Setaria faberii,Setaria faberii; [3],100%
same,damage of the useful plant maize,Zea mays,0%
same,Test plants [damage in %] Amaranthus retroflexus,Amaranthus retroflexus; [2],100%
same,Test plants [damage in %] Amaranthus retroflexus,Amaranthus retroflexus; [3],100%
same,Test plants [damage in %] Solanum nigrum,Solanum nigrum; [2],100%
same,Test plants [damage in %] Solanum nigrum,Solanum nigrum; [3],100%
